The subject of experiment [1] is Staphylococcus aureus. As to the kind of experiment: Antibacterial activity against norfloxacin resistant Staphylococcus aureus 1199B overexpressing NorA assessed as bacterial growth inhibition incubated for 24 hrs by resazurin based broth microdilution method. It counts as functional. A general note: The colour change of resazurin is a common sign of viable cells or microbes.

Experiment [2] deals with Staphylococcus aureus. As to the kind of experiment: Antibacterial activity against norfloxacin resistant Staphylococcus aureus 1199 assessed as bacterial growth inhibition incubated for 24 hrs by resazurin based broth microdilution method. It counts as functional.
The test system of experiment [3] is Staphylococcus aureus. As to the kind of experiment: Antibacterial activity against Staphylococcus aureus K4100 overexpressing qacC gene assessed as bacterial growth inhibition incubated for 24 hrs by resazurin based microdilution assay. In kind it is functional.
Experiment [4] deals with Staphylococcus aureus. As to the kind of experiment: Antibacterial activity against Staphylococcus aureus RN4220 overexpressing […] efflux protein assessed as bacterial growth inhibition incubated for 24 hrs by resazurin based microdilution assay. It counts as functional.
In experiment [5] the test system is Staphylococcus aureus. Briefly: Antibacterial activity against Staphylococcus aureus K4414 overexpressing qacA/B gene assessed as bacterial growth inhibition incubated for 24 hrs by resazurin based microdilution assay. In kind it is functional.
Experiment [6] has as its system Staphylococcus aureus. As to the kind of experiment: Antibacterial activity against Staphylococcus aureus K2068 overexpressing mepA gene assessed as bacterial growth inhibition incubated for 24 hrs by resazurin based microdilution assay. In kind it is functional.
Experiment [7] relates to Staphylococcus aureus. As to the kind of experiment: Antibacterial activity against wild type Staphylococcus aureus ATCC 25923 assessed as bacterial growth inhibition incubated for 24 hrs by resazurin based microdilution assay. In kind it is functional.
The test system of experiment [8] is Staphylococcus aureus. As to the kind of experiment: Antibacterial activity against Staphylococcus aureus 1199B overexpressing NorA efflux protein assessed as bacterial growth inhibition incubated for 24 hrs by resazurin based microdilution assay. In kind it is functional.
Experiment [9] deals with Staphylococcus aureus. As to the kind of experiment: Antibacterial activity against Staphylococcus aureus IS-58 overexpressing TetK efflux protein assessed as bacterial growth inhibition incubated for 24 hrs by resazurin based microdilution assay. It counts as functional.
In experiment [10] the test system is Staphylococcus aureus. As to the kind of experiment: Synergistic antimicrobial activity against Staphylococcus aureus 1199B overexpressing NorA efflux pump assessed as fractional inhibitory concentration index incubated for 24 hrs by checkerboard method. In kind it is functional.
For experiment [11], the system named is Staphylococcus aureus. Briefly: Synergistic antimicrobial activity against Staphylococcus aureus 1199B overexpressing NorA efflux pump assessed as reduction in norfloxacin MIC incubated for 24 hrs by MTT colorimetric assay (Rvb= […]). In kind it is functional.
The target of experiment [12] is T1, Quinolone resistance protein NorA (Staphylococcus aureus) (UniProt P0A0J7).
T1 sequence (whole entry): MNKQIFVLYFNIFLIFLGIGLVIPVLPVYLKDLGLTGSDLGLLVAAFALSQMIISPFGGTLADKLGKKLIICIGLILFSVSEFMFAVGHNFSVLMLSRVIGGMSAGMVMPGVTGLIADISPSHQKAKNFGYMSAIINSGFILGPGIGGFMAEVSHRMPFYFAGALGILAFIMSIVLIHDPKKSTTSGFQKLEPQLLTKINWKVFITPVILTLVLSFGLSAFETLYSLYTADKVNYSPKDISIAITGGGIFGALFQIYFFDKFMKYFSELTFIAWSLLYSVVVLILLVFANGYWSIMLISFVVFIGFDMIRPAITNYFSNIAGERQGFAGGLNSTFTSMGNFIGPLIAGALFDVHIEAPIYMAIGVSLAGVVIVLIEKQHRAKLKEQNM
As to the kind of experiment: Inhibition of NorA efflux pump in Staphylococcus aureus 1199 assessed as norfloxacin MIC at 1/8 times of MIC using norfloxacin as substrate incubated for 24 hrs by resazurin based assay (Rvb= 32 ug/ml).

The test system of experiment [13] is Staphylococcus aureus. Briefly: Antibacterial activity against Staphylococcus aureus 1199B expressing NorA efflux protein assessed as bacterial growth inhibition incubated for 24 hrs by resazurin based microdilution assay. In kind it is functional.
Experiment [14] concerns Staphylococcus aureus. As to the kind of experiment: Antibacterial activity against wild type Staphylococcus aureus 1199 assessed as bacterial growth inhibition incubated for 24 hrs by resazurin based microdilution assay. In kind it is functional.
Experiment [15] deals with T1, Quinolone resistance protein NorA (Staphylococcus aureus). Briefly: Inhibition of NorA efflux pump in Staphylococcus aureus 1199B overexpressing NorA efflux pump assessed as norfloxacin MIC at 1/8 times of MIC using norfloxacin as substrate incubated for 24 hrs by resazurin based assay (Rvb= 406.37 ug/ml).
The target is the same in experiment [16]. Briefly: Inhibition of NorA efflux pump in Staphylococcus aureus 1199 assessed as EtBr MIC at 1/8 times of MIC using EtBr as substrate incubated for 24 hrs by resazurin based assay (Rvb= 256 ug/ml).
Experiment [17] shares this target. Briefly: Inhibition of NorA efflux pump in Staphylococcus aureus 1199B overexpressing NorA efflux pump assessed as EtBr MIC at 1/8 times of MIC using EtBr as substrate incubated for 24 hrs by resazurin based assay (Rvb= 256 ug/ml).
The subject of experiment [18] is Staphylococcus aureus. As to the kind of experiment: Antibacterial activity against tetracycline-resistant Staphylococcus aureus XU212 assessed as bacterial growth inhibition incubated for 18 hrs by MTT assay. In kind it is functional. On the technique in general: Tetrazolium dyes change colour on reduction, which living cells bring about.
Experiment [19] has as its system Staphylococcus aureus. As to the kind of experiment: Antibacterial activity against Staphylococcus aureus ATCC25923 assessed as bacterial growth inhibition incubated for 18 hrs by MTT assay. In kind it is functional.
In experiment [20] the test system is Staphylococcus aureus. As to the kind of experiment: Antibacterial activity against Staphylococcus aureus 1199B overexpressing NorA assessed as bacterial growth inhibition incubated for 18 hrs by MTT assay. It counts as functional.
Experiment [21] has as its system Staphylococcus aureus. Briefly: Antibacterial activity against Staphylococcus aureus RN4220 assessed as bacterial growth inhibition incubated for 18 hrs by MTT assay. It counts as functional.
Experiment [22] deals with Staphylococcus aureus. As to the kind of experiment: Antibacterial activity against Staphylococcus aureus EMRSA-15 assessed as bacterial growth inhibition incubated for 18 hrs by MTT assay. In kind it is functional.
Experiment [23] deals with T1, Quinolone resistance protein NorA (Staphylococcus aureus). As to the kind of experiment: Modulation of norfloxacin-induced inhibition of NorA efflux pump in Staphylococcus aureus 1199B overexpressing NorA efflux pump assessed as reduction in norfloxacin MIC at 1/4 times of MIC by resazurin based assay.
Experiment [24] has the same target. As to the kind of experiment: Modulation of EtBr -induced inhibition of NorA efflux pump in Staphylococcus aureus 1199B overexpressing NorA efflux pump assessed as reduction in EtBr MIC at 1/4 times of MIC using EtBr as substrate by resazurin based assay.

In brackets after ≈: the same amount, converted by molar mass.

Regarding `C/C=C/c1ccc(O)c(OC)c1`, the MIC in experiment [1] is 32 µg/mL (≈ 195 µM); in experiment [2], 40.3 µg/mL (≈ 245 µM).
On to `COc1ccc(/C=C/C(=O)c2ccc(O)cc2)cc1OC`, for which the MIC in experiment [3], in experiment [4], in [5], in experiment [6], in [7] and in experiment [8] was 100 µg/mL (≈ 352 µM) in each case. In addition, the MIC in experiment [9] is 100 µg/mL (≈ 352 µM).
As for `COc1ccc(/C=C/C(=O)c2ccccc2)cc1OC`, the MIC in experiment [3], in experiment [4], in experiment [5], in experiment [6], in experiment [7] and in [8] was 100 µg/mL (≈ 373 µM) throughout. Besides, the MIC in experiment [9] came to 100 µg/mL (≈ 373 µM).
In the case of `O=C(OC[C@]1(O)[C@H](OC(=O)c2ccccc2)C=C[C@@H](OC(=O)c2ccccc2)[C@@H]1O)c1ccccc1`, in experiment [10], the “fractional inhibitory concentration index (FICI)” value stood at 0.52. Besides, the MIC in experiment [11] stood at 32 µg/mL.
`CC(C)=CCC1=C(NCCO)C(=O)c2ccccc2C1=O`: the MIC is 1 µg/mL in experiment [12]; at least 1020 µg/mL in experiment [13]; at least 1020 µg/mL in [14]; 80 µg/mL in [15]; 16 µg/mL in experiment [16]; 32 µg/mL in [17].
In the case of `CC(C)=CCC1=C(NCCCO)C(=O)c2ccccc2C1=O`, the MIC was 4 µg/mL in [12]; at least 1020 µg/mL in experiment [13]; at least 1020 µg/mL in [14]; 102 µg/mL in experiment [15]; 32 µg/mL in [16]; 64 µg/mL in [17].
In the case of `COC(=O)c1cc(/C=C/C(=O)c2cccc(O)c2)ccc1OC`, the MIC in experiment [3], in experiment [4], in experiment [5], in experiment [6], in [7] and in [8] was 100 µg/mL (≈ 320 µM) in each case. Moreover, in experiment [9], the MIC amounted to 100 µg/mL (≈ 320 µM).
For the compound `CC(C)=CC1=C(NCCO)C(=O)c2ccccc2C1=O`, the MIC in experiment [12] is 2.51 µg/mL; in experiment [13] it was at least 1020 µg/mL; in experiment [14], at least 1020 µg/mL; in experiment [15] it was 50.8 µg/mL; in experiment [16], 32 µg/mL; in experiment [17], 128 µg/mL.
For the compound `COc1ccc(-c2cc(=O)c3ccc(O)cc3o2)cc1O`, the MIC in experiment [18], in experiment [19], in experiment [20], in experiment [21] and in [22] was 32 µg/mL (≈ 113 µM) throughout.
Consider `C/C=C/c1cc(OC)c2c(c1)[C@H](C)[C@@H](c1ccc(OC)c(OC)c1)O2`, for which, in experiment [10], the “fractional inhibitory concentration index (FICI)” value is on record as 0.13. The MIC in experiment [11] came to 8 µg/mL.
For `C=CC[C@]12C=C(OC)C(=O)[C@H]([C@@H](c3ccc4c(c3)OCO4)[C@@H]1C)[C@@H]2OC(C)=O` the same measures were 0.25 and 16 µg/mL.
In the case of `COc1ccc(-c2cc(=O)c3c(O)cc(O[C@@H]4O[C@H](CO[C@@H]5O[C@@H](C)[C@H](O)[C@@H](O)[C@H]5O)[C@@H](O)[C@H](O)[C@H]4O)cc3o2)cc1O`, the MIC in experiment [23] was 32 µg/mL.
Take `COc1ccc([C@@H]2CC(=O)c3c(O)cc(O)cc3O2)cc1O`: the MIC in [24] turned out to be 16 µg/mL; in experiment [23], 8 µg/mL.
For the compound `C[C@@H]1O[C@@H](Oc2c(-c3cc(O)c(O)c(O)c3)oc3cc(O)cc(O)c3c2=O)[C@H](O)[C@H](O)[C@H]1O`, in [23], the MIC was 32 µg/mL.
`C[C@@H]1O[C@@H](Oc2c(-c3ccc(O)c(O)c3)oc3cc(O)cc(O)c3c2=O)[C@H](O)[C@H](O)[C@H]1O`: in experiment [23], the MIC was determined as 64 µg/mL.

Values taken from ChEMBL document CHEMBL5244281, “Tackling multidrug-resistant Staphylococcus aureus by natural products and their analogues acting as NorA efflux pump inhibitors” (Bioorg Med Chem, 2023).
